The target of one assay is human orexin-2 receptor (Homo sapiens (Human), UniProt O43614). Kind of assay: FLIPR Ca2+ Flux Assay, hOX2R. Type of assay: cell-based. As to conditions: CHO cells expressing human orexin-2 receptor; agonist 70 pM Ala-6,12 human orexin-A. How it is done: (§1) The utility of the compounds in accordance with the present invention as orexin receptor OX1R and/or OX2R antagonists may be readily determined without undue experimentation by methodology well known in the art, including the “FLIPR Ca^2+ Flux Assay” (Okumura et al., Biochem. Biophys. Res. Comm. 280:976-981, 2001). In a typical experiment the OX1 and OX2 receptor antagonistic activity of the compounds of the present invention was determined in accordance with the following experimental method. For intracellular calcium measurements, Chinese hamster ovary (CHO) cells expressing the rat or human orexin-1 receptor or the human orexin-2 receptor, are grown in Iscove's modified DMEM containing 2 mM L-glutamine, […], 1% hypoxanthine-thymidine supplement, 100 U/ml penicillin, 100 μg/ml streptomycin and 10% heat-inactivated fetal calf serum (FCS). The cells are seeded at 20,000 cells/well into Becton-Dickinson black 384-well clear bottom sterile plates coated with poly-D-lysine. All reagents were from GIBCO-Invitrogen Corp. The seeded plates are incubated overnight at 37° C. and 5% CO2. Ala-6,12 human orexin-A as the agonist is prepared as a 1 mM stock solution in 1% bovine serum albumin (BSA) and diluted in assay buffer (HBSS containing 20 mM HEPES, 0.1% BSA and 2.5 mM probenecid, pH7.4) for use in the assay at a final concentration of 70 pM. Test compounds are prepared as 10 mM stock solution in DMSO, then diluted in 384-well plates, first in DMSO, then assay buffer. On the day of the assay, cells are washed 3 times with 100 μl assay buffer and then incubated for 60 min (37° C., 5% CO2) in 60 μl assay buffer containing 1 μM Fluo-4AM ester, 0.02% pluronic acid, and 1% BSA. The dye loading solution is then aspirated and cells are washed 3 times with 100 μl assay buffer. 30 μl of that same buffer is left in each well. Within the Fluorescent Imaging Plate Reader (FLIPR, Molecular Devices), test compounds are added to the plate in a volume of 25 μl, incubated for 5 min and finally 25 μl of agonist is added. Fluorescence is measured for each well at 1 second intervals for 5 minutes and the height of each fluorescence peak is compared to the height of the fluorescence peak induced by 70 pM Ala-6,12 orexin-A with buffer in place of antagonist. For each antagonist, IC50 value (the concentration of compound needed to inhibit 50% of the agonist response) is determined. Alternatively, compound potency can be assessed by a radioligand binding assay (described in Bergman et. al. Bioorg. Med. Chem. Lett. 2008, 18, 1425-1430) in which the inhibition constant (Ki) is determined in membranes prepared from CHO cells expressing either the OX1 or OX2 receptor. The intrinsic orexin receptor antagonist activity of a compound which may be used in the present invention may be determined by these assays.

The target in another assay is human orexin-1 receptor (Homo sapiens (Human), UniProt O43613). Kind of assay: FLIPR Ca2+ Flux Assay, hOX1R. Type of assay: cell-based. As to conditions: CHO cells expressing human orexin-1 receptor; agonist 70 pM Ala-6,12 human orexin-A. How it is done:
as §1

Where only a bound is given, the exact number is not on record here.

Sequence of human orexin-1 receptor (O43613 whole entry): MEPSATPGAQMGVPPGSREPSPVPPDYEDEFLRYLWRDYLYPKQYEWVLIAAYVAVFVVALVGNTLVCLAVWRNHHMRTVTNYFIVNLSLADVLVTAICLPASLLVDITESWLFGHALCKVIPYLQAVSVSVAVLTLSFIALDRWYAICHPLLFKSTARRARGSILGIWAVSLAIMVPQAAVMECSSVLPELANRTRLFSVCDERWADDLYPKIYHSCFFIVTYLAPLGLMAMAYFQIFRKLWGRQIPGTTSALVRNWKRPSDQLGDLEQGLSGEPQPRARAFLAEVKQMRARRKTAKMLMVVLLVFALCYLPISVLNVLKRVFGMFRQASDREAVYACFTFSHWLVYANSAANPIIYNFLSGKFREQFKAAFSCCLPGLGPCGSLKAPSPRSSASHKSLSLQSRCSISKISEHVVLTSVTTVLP
Sequence of human orexin-2 receptor (O43614 whole entry): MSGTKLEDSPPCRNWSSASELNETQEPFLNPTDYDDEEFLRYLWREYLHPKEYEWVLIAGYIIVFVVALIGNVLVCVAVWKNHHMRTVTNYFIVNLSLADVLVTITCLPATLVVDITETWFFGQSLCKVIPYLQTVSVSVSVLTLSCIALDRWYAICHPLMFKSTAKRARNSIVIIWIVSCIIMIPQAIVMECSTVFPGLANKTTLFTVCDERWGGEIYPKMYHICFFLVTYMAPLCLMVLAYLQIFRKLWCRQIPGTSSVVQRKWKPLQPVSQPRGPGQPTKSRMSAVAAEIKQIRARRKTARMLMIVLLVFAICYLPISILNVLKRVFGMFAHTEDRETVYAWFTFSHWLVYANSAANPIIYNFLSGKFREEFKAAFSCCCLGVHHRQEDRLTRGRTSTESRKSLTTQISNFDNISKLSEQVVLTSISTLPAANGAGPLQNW

Consider `Cc1oc(CCN(C(=O)c2ccccc2-n2nccn2)C2CCC2)nc1C(C)(C)O` [Example 32, N-Cyclobutyl-N-(2-(4-(2-hydroxypropan-2-yl)-5-methyloxazol-2-yl)ethyl)-2-(2H-1,2,3-triazol-2-yl)benzamide], for which the IC50 stood at 38 nM on human orexin-2 receptor and 8180 nM at human orexin-1 receptor.
The matching figures for `COCCN(CCc1nc(C(C)(C)O)c(C)o1)C(=O)c1ccccc1-n1nccn1` [Example 29, N-(2-(4-(2-Hydroxypropan-2-yl)-5-methyloxazol-2-yl)ethyl)-N-(2-methoxyethyl)-2-(2H-1,2,3-triazol-2-yl)benzamide]: 19 nM and greater than 10000 nM.
In the same order, the values of `CCN(CCc1nc(C(C)(C)O)c(C)o1)C(=O)c1cccnc1OCC(F)F` [Example 10, 2-(2,2-difluoroethoxy)-N-ethyl-N-{2-[4-(1-hydroxy-1-methylethyl)-5-methyl-1,3-oxazol-2-yl]ethyl}pyridine-3-carboxamide] are 224 nM and greater than 10000 nM.
The matching figures for `CCN(CCc1nc(C(C)(O)CC)c(C)o1)C(=O)c1ccccc1-n1nccn1` (centres unmarked) [Example 19, N-Ethyl-N-{2-[4-(1-hydroxy-1-methylpropyl)-5-methyl-1,3-oxazol-2-yl]ethyl}-2-(2H-1,2,3-triazol-2-yl)benzamide]: 12 nM and 3380 nM.
On to `CCN(CCc1nc(C(C)(C)O)c(C)o1)C(=O)c1ccccc1-c1ccccc1` [Example 1, N-Ethyl-N-(2-(4-(2-hydroxypropan-2-yl)-5-methyloxazol-2-yl)ethyl)-[1,1′-biphenyl]-2-carboxamide], for which the IC50 at human orexin-2 receptor amounted to 29 nM; on human orexin-1 receptor it was 1830 nM.
`CCOc1ccccc1C(=O)N(CC)CCc1nc(C(C)(C)O)c(C)o1` [Example 15, 2-Ethoxy-N-ethyl-N-{2-[4-(1-hydroxy-1-methylethyl)-5-methyl-1,3-oxazol-2-yl]ethyl}benzamide]: the concentration for half-maximal inhibition (IC50) was 223 nM on human orexin-2 receptor and greater than 10000 nM on human orexin-1 receptor.
With `CCN(CCc1nc(C(C)(C)O)c(C)o1)C(=O)c1ccc(F)cc1-n1nccn1` [Example 4, N-Ethyl-4-fluoro-N-{2-[4-(1-hydroxy-1-methylethyl)-5-methyl-1,3-oxazol-2-yl]ethyl}-2-(2H-1,2,3-triazol-2-yl)benzamide], the values for the IC50 on human orexin-2 receptor and at human orexin-1 receptor were 48 nM and greater than 10000 nM, respectively.
The matching figures for `CCN(CCc1nc(C(C)(O)C(C)C)c(C)o1)C(=O)c1ccccc1-n1nccn1` (centres unmarked) [Example 20, N-Ethyl-N-{2-[4-(1-hydroxy-1,2-dimethylpropyl)-5-methyl-1,3-oxazol-2-yl]ethyl}-2-(2H-1,2,3-triazol-2-yl)benzamide]: 19 nM and 2670 nM.
For the molecule `CCN(CCc1nc(C(C)(C)O)c(C)o1)C(=O)c1ccccc1-c1nc(C)no1` [Example 10c, N-ethyl-N-{2-[4-(1-hydroxy-1-methylethyl)-5-methyl-1,3-oxazol-2-yl]ethyl}-2-(3-methyl-1,2,4-oxadiazol-5-yl)benzamide], the IC50 is 212 nM at human orexin-2 receptor and greater than 10000 nM on human orexin-1 receptor.
In the same order, the values of `Cc1oc(CCN(C(=O)c2ccccc2-n2nccn2)C2CC2)nc1C(C)(C)O` [Example 31, N-Cyclopropyl-N-(2-(4-(2-hydroxypropan-2-yl)-5-methyloxazol-2-yl)ethyl)-2-(2H-1,2,3-triazol-2-yl)benzamide] are 42 nM and 7590 nM.
`Cc1oc(CCN(C(=O)c2ccccc2-n2nccn2)C(C)C)nc1C(C)(C)O` [Example 25, N-{2-[4-(1-Hydroxy-1-methylethyl)-5-methyl-1,3-oxazol-2-yl]ethyl}-N-(1-methylethyl)-2-(2H-1,2,3-triazol-2-yl)benzamide]: the IC50 at human orexin-2 receptor was 152 nM; at human orexin-1 receptor, greater than 10000 nM.
For `CCN(CCc1nc(C(C)(C)O)c(C)o1)C(=O)c1cccc(F)c1-n1nccn1` [Example 3, N-Ethyl-3-fluoro-N-{2-[4-(1-hydroxy-1-methylethyl)-5-methyl-1,3-oxazol-2-yl]ethyl}-2-(2H-1,2,3-triazol-2-yl)benzamide], the results for the half-maximal inhibitory concentration (IC50) at human orexin-2 receptor and at human orexin-1 receptor were 44 nM and greater than 10000 nM, respectively.
In the same order, the values of `CCN(CCc1nc(C(C)(C)O)c(C)o1)C(=O)c1ccccc1C1(C(F)F)CC1` [Example 18b, 2-(1-(difluoro-methyl)cyclopropyl)-N-ethyl-N-(2-(4-(2-hydroxypropan-2-yl)-5-methyloxazol-2-yl)ethyl)benzamide] are 145 nM and greater than 10000 nM.
As for `CCN(CCc1nc(C(C)(C)O)c(C)o1)C(=O)c1ccc(OC)cc1-n1nccn1` [Example 8, N-Ethyl-N-{2-[4-(1-hydroxy-1-methylethyl)-5-methyl-1,3-oxazol-2-yl]ethyl}-4-methoxy-2-(2H-1,2,3-triazol-2-yl)benzamide], the figures for the half-maximal inhibitory concentration (IC50) at human orexin-2 receptor and at human orexin-1 receptor were 82 nM and greater than 10000 nM, respectively.
The matching figures for `CCN(CCc1nc(C(C)(C)O)c(C)o1)C(=O)c1cccc(C)c1-n1nccn1` [Example 2, N-Ethyl-N-{2-[4-(1-hydroxy-1-methylethyl)-5-methyl-1,3-oxazol-2-yl]ethyl}-3-methyl-2-(2H-1,2,3-triazol-2-yl)benzamide]: 54 nM and greater than 10000 nM.
The matching figures for `CCN(CCc1nc(C(C)(C)O)c(C)o1)C(=O)c1cccnc1-n1cccn1` [Example 6, N-Ethyl-N-{2-[4-(1-hydroxy-1-methylethyl)-5-methyl-1,3-oxazol-2-yl]ethyl}-2-(1H-pyrazol-1-yl)pyridine-3-carboxamide]: 101 nM and greater than 10000 nM.
In the same order, the values of `Cc1oc(CCN(C)C(=O)c2ccccc2-n2nccn2)nc1C(C)(C)O` [Example 30, N-(2-(4-(2-Hydroxypropan-2-yl)-5-methyloxazol-2-yl)ethyl)-N-methyl-2-(2H-1,2,3-triazol-2-yl)benzamide] are 390 nM and greater than 10000 nM.
Take `CCN(CCc1nc(C(C)(C)O)c(C)o1)C(=O)c1ccsc1-n1nccn1` [Example 12, N-Ethyl-N-{2-[4-(1-hydroxy-1-methylethyl)-5-methyl-1,3-oxazol-2-yl]ethyl}-2-(2H-1,2,3-triazol-2-yl)thiophene-3-carboxamide]: the values for the IC50 at human orexin-2 receptor and at human orexin-1 receptor were 63 nM and greater than 10000 nM, respectively.
`Cc1oc(CCN(CCCO)C(=O)c2ccccc2-n2nccn2)nc1C(C)(C)O` [Example 27, N-{2-[4-(1-Hydroxy-1-methylethyl)-5-methyl-1,3-oxazol-2-yl]ethyl}-N-(3-hydroxypropyl)-2-(2H-1,2,3-triazol-2-yl)benzamide]: the half-maximal inhibitory concentration (IC50) at human orexin-2 receptor is 304 nM; on human orexin-1 receptor it was greater than 10000 nM.
The matching figures for `CCN(CCc1nc(C(C)(C)O)c(C)o1)C(=O)c1ccccc1C1CC1` [Example 5, 2-Cyclopropyl-N-ethyl-N-{2-[4-(1-hydroxy-1-methylethyl)-5-methyl-1,3-oxazol-2-yl]ethyl}benzamide]: 387 nM and greater than 10000 nM.
In the same order, the values of `CCN(CCc1nc(C(C)(C)O)c(C)o1)C(=O)c1cc(F)ccc1-n1nccn1` [Example 7, N-Ethyl-5-fluoro-N-{2-[4-(1-hydroxy-1-methylethyl)-5-methyl-1,3-oxazol-2-yl]ethyl}-2-(2H-1,2,3-triazol-2-yl)benzamide] are 62 nM and greater than 10000 nM.
Consider `CCN(CCc1nc(C(C)(C)O)c(C)o1)C(=O)c1ccccc1-n1cccn1` [Example 17, N-Ethyl-N-{2-[4-(1-hydroxy-1-methylethyl)-5-methyl-1,3-oxazol-2-yl]ethyl}-2-(1H-pyrazol-1-yl)benzamide], for which the values for the IC50 at human orexin-2 receptor and at human orexin-1 receptor were 292 nM and greater than 10000 nM, respectively.
